From patent US20240368135A1 (VERTEX PHARMACEUTICALS INCORPORATED, priority 2021, published 2024) come the findings set out here.

What is called pIC50 is the IC50 on a negative log10 scale, so that one unit is a factor of ten.

pIC50: −log10 of the molar value.

The target of the first experiment is human NaV 1.8 (Homo sapiens, UniProt Q9Y5Y9). The experiment is described as follows: E-VIPR assay detecting and measuring NaV inhibition properties. Format: cell-based. Particulars: HEK cells expressing truncated human NaV 1.8; in the presence of human serum (compound numbers followed by *); read-out: IC50 in the E-VIPR Assay, performed in the presence of human serum. A digest of the protocol: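 HEK cells expressing truncated, fully active human NaV1.8, with KIR2.1 BacMam co-transduction, were loaded with CC2-DMPE/DiSBAC6(3) voltage-sensing dyes for 20 min at room temperature. Compounds were tested in 11-point 3-fold dilutions (300 nM top final), optionally with 25% human serum, under electrical stimulation with FRET read-out.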
Sequence of human NaV 1.8 (Q9Y5Y9 126-399 limits assumed): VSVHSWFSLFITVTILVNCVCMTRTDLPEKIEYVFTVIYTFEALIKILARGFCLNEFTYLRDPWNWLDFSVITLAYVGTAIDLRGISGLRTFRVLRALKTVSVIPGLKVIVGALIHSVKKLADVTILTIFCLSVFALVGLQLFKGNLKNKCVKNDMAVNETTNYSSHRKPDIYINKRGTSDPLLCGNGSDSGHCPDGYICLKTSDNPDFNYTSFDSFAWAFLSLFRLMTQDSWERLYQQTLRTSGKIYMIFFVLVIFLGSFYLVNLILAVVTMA
Sequence of human NaV 1.8 (Q9Y5Y9 660-890 limits assumed): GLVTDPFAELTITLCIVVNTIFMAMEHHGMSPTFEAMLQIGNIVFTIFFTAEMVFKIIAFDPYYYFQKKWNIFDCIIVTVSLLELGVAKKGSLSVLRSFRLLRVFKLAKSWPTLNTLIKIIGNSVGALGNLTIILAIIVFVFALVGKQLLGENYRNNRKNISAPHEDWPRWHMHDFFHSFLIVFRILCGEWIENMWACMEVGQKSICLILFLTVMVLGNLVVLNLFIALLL
Sequence of human NaV 1.8 (Q9Y5Y9 1148-1722 limits assumed): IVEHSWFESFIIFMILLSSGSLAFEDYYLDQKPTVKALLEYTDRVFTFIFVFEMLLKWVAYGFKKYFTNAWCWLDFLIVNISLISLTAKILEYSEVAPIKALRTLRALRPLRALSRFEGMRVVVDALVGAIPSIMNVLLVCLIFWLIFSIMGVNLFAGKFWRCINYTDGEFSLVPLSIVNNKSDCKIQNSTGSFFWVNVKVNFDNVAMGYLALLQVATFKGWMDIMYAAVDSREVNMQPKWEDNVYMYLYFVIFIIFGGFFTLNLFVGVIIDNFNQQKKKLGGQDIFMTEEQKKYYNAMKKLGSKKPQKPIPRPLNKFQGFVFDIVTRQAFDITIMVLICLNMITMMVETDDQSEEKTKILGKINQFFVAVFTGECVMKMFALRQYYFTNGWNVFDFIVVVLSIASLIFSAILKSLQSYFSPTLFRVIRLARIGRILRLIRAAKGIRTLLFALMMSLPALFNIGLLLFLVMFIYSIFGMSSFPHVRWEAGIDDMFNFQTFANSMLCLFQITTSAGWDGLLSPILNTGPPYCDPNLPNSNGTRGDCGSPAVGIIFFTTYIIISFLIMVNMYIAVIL
Regarding `COc1c(C2CC(C)(C(F)(F)F)OC2C(=O)Nc2ccnc(C(O)C(C)O)c2)ccc(F)c1F` (single isomer, unassigned) [Compound 696], the pIC50 is 7.00 to 8.00.

In the case of `COc1c([C@H]2C[C@@](C)(C(F)(F)F)O[C@@H]2C(=O)Nc2cc(C(O)CO)ncc2F)ccc(F)c1F` (single isomer, unassigned) [Compound 690], the pIC50 is at most 6.00.

Staying with this experiment, now noted: HEK cells expressing truncated human NaV 1.8; no human serum; read-out: IC50 in the E-VIPR Assay.
Regarding `COCCOc1c([C@H]2[C@H](C(=O)Nc3ccnc(N4CCN(C)CC4=O)c3)O[C@@](C)(C(F)(F)F)[C@H]2C)ccc(F)c1F` [Compound 585, (2R,3S,4S,5R)-3-(3,4-difluoro-2-(2-methoxyethoxy)phenyl)-4,5-dimethyl-N-(2-(4-methyl-2-oxopiperazin-1-yl)pyridin-4-yl)-5-(trifluoromethyl)tetrahydrofuran-2-carboxamide], the pIC50 was 7.00 to 8.00.

As to `COc1c(C2C(C(=O)Nc3ccnc(S(=O)(=O)CCO)c3)OC(C)(C(F)(F)F)C2C)ccc(F)c1F` (stereo not shown) [Compound 62, 3-(3,4-difluoro-2-methoxy-phenyl)-N-[2-(2-hydroxyethylsulfonyl)-4-pyridyl]-4,5-dimethyl-5-(trifluoromethyl)tetrahydrofuran-2-carboxamide], the pIC50 was above 8.00.

Turning to `COc1c([C@H]2[C@H](C(=O)Nc3ccnc(C[C@H]4COCCN4)c3)O[C@@](C)(C(F)(F)F)[C@H]2C)ccc(F)c1F` [Compound 214, (2R,3S,4S,5R)-3-(3,4-difluoro-2-methoxyphenyl)-4,5-dimethyl-N-(2-(((S)-morpholin-3-yl)methyl)pyridin-4-yl)-5-(trifluoromethyl)tetrahydrofuran-2-carboxamide], the pIC50 was 7.00 to 8.00.

As to `COc1c(C2C(C(=O)Nc3ccc(P(C)(C)=O)cc3)OC(C)(C(F)(F)F)C2C)ccc(F)c1F` (single isomer, unassigned) [Compound 39, 3-(3,4-difluoro-2-methoxy-phenyl)-N-(4-dimethylphosphorylphenyl)-4,5-dimethyl-5-(trifluoromethyl)tetrahydrofuran-2-carboxamide], the pIC50 was 6.00 to 7.00.

For the compound `COc1c([C@H]2[C@H](C(=O)Nc3ccnc(N4CC(N(C)C)CC4=O)c3)O[C@@](C)(C(F)(F)F)[C@H]2C)ccc(F)c1F` (single isomer, unassigned) [Compound 505, rel-(2R*,3S*,4S*,5R*)-3-(3,4-difluoro-2-methoxyphenyl)-N-(2-(4-(dimethylamino)-2-oxopyrrolidin-1-yl)pyridin-4-yl)-4,5-dimethyl-5-(trifluoromethyl)tetrahydrofuran-2-carboxamide], the pIC50 is 7.00 to 8.00.

On to `C[C@H]1[C@@H](c2ccc(F)c(F)c2OCCO)[C@H](C(=O)Nc2ncnc3c2cnn3C(C)(C)C)O[C@@]1(C)C(F)(F)F` [Compound 563, (2R,3S,4S,5R)-N-(1-(tert-butyl)-1H-pyrazolo[3,4-d]pyrimidin-4-yl)-3-(3,4-difluoro-2-(2-hydroxyethoxy)phenyl)-4,5-dimethyl-5-(trifluoromethyl)tetrahydrofuran-2-carboxamide], for which the negative-log IC50 (pIC50) was at most 6.00.

As to `COc1c([C@H]2[C@H](C(=O)Nc3ccc(C(=O)NS(C)(=O)=O)nc3)O[C@@](C)(C(F)(F)F)[C@H]2C)ccc(F)c1F` [Compound 375, 5-[[(2R,3S,4S,5R)-3-(3,4-difluoro-2-methoxy-phenyl)-4,5-dimethyl-5-(trifluoromethyl)tetrahydrofuran-2-carbonyl]amino]-N-methylsulfonyl-pyridine-2-carboxamide], the pIC50 was 6.00 to 7.00.

In the case of `C[C@H]1[C@@H](c2ccc(F)c(F)c2OC(F)F)[C@H](C(=O)Nc2ccnc(N3CCNCC3=O)c2)O[C@@]1(C)C(F)(F)F` [Compound 514, (2R,3S,4S,5R)-3-(2-(difluoromethoxy)-3,4-difluorophenyl)-4,5-dimethyl-N-(2-(2-oxopiperazin-1-yl)pyridin-4-yl)-5-(trifluoromethyl)tetrahydrofuran-2-carboxamide], the pIC50 is 7.00 to 8.00.

For the compound `COc1c([C@@H]2[C@@H](C(=O)Nc3ccnc(N4CCN(C)CC4=O)c3)O[C@](C)(C(F)(F)F)[C@@H]2C)ccc(F)c1C(F)F` (single isomer, unassigned) [Compound 163], the pIC50 was 6.00 to 7.00.

Regarding `CCOc1c([C@H]2[C@H](C(=O)Nc3ccnc([S@@](C)(=O)=NC)c3)O[C@@](C)(C(F)(F)F)[C@H]2C)ccc(F)c1F` (relative stereo) [Compound 12, rel-(2R,3S,4S,5R)—N-(2-(N,S-dimethylsulfonimidoyl)pyridin-4-yl)-3-(2-ethoxy-3,4-difluorophenyl)-4,5-dimethyl-5-(trifluoromethyl)tetrahydrofuran-2-carboxamide], the negative-log IC50 (pIC50) is above 8.00.

As to `C[C@H]1[C@@H](c2ccc(F)c(F)c2OC(F)F)[C@H](C(=O)Nc2ccc(CC(C)(C)O)nc2)O[C@@]1(C)C(F)(F)F` (single isomer, unassigned) [Compound 462], the pIC50 was 6.00 to 7.00.

Turning to `COc1c([C@@H]2[C@H](C)[C@H](C)O[C@H]2C(=O)Nc2ccnc(C(O)CO)c2)ccc(F)c1F` (relative stereo) [Compound 718, rel-(2R,3S,4S,5S)-3-(3,4-difluoro-2-methoxyphenyl)-N-(2-(1,2-dihydroxyethyl)pyridin-4-yl)-4,5-dimethyltetrahydrofuran-2-carboxamide], the pIC50 is 6.00 to 7.00.

As for `COCCCOc1c([C@H]2[C@H](C(=O)Nc3ccnc(CO)c3)O[C@@](C)(C(F)(F)F)[C@H]2C)ccc(F)c1F` [Compound 642, (2R,3S,4S,5R)-3-(3,4-difluoro-2-(3-methoxypropoxy)phenyl)-N-(2-(hydroxymethyl)pyridin-4-yl)-4,5-dimethyl-5-(trifluoromethyl)tetrahydrofuran-2-carboxamide], the pIC50 is above 8.00.

As for `COc1c([C@H]2[C@H](C(=O)Nc3cc(C4CNCCO4)ncc3F)O[C@@](C)(C(F)(F)F)[C@H]2C)ccc(F)c1F` (single isomer, unassigned) [Compound 350, rel-(2R*,3S*,4S*,5R*)-3-(3,4-difluoro-2-methoxyphenyl)-N-(5-fluoro-2-(morpholin-2-yl)pyridin-4-yl)-4,5-dimethyl-5-(trifluoromethyl)-tetrahydrofuran-2-carboxamide], the pIC50 was 7.00 to 8.00.

Turning to `COc1c(C2C(C(=O)Nc3cccnc3)OC(C)(C(F)(F)F)C2C)ccc(F)c1F` (single isomer, unassigned) [Compound 30, 3-(3,4-difluoro-2-methoxy-phenyl)-4,5-dimethyl-N-(3-pyridyl)-5-(trifluoromethyl)tetrahydrofuran-2-carboxamide], the pIC50 is above 8.00.

With `COc1c([C@H]2[C@H](C(=O)Nc3ccnc(C(O)CO)c3)O[C@@](C)(C(F)(F)F)[C@H]2C)ccc(F)c1C` (single isomer, unassigned) [Compound 135], the pIC50 was above 8.00.

Consider `CCOc1c([C@H]2[C@H](C(=O)Nc3ccn(C)c(=O)c3)O[C@@](C)(C(F)(F)F)[C@H]2C)ccc(F)c1F` (stereo in doubt) [Compound 103, rel-(2R,3S,4S,5R)-3-(2-ethoxy-3,4-difluorophenyl)-4,5-dimethyl-N-(1-methyl-2-oxo-1,2-dihydropyridin-4-yl)-5-(trifluoromethyl)tetrahydrofuran-2-carboxamide], for which the negative-log IC50 (pIC50) was above 8.00.

For the compound `COCc1c(F)ccc([C@@H]2[C@@H](C(=O)Nc3ccc(C(N)=O)nc3)O[C@](C)(C(F)(F)F)[C@@H]2C)c1OC` (stereo in doubt) [Compound 178, rel-5-((2S,3R,4R,5S)-3-(4-fluoro-2-methoxy-3-(methoxymethyl)phenyl)-4,5-dimethyl-5-(trifluoromethyl)tetrahydrofuran-2-carboxamido)picolinamide], the pIC50 was at most 6.00.

Regarding `COc1c([C@H]2[C@H](C(=O)Nc3ccnc(N4C(=O)CN(C)C[C@H]4CO)c3)O[C@@](C)(C(F)(F)F)[C@H]2C)ccc(F)c1F` [Compound 512, (2R,3S,4S,5R)-3-(3,4-difluoro-2-methoxyphenyl)-N-(2-((S)-2-(hydroxymethyl)-4-methyl-6-oxopiperazin-1-yl)pyridin-4-yl)-4,5-dimethyl-5-(trifluoromethyl)tetrahydrofuran-2-carboxamide], the negative-log IC50 (pIC50) is above 8.00.

For `Cc1nocc1NC(=O)[C@@H]1O[C@@](C)(C(F)(F)F)[C@@H](C)[C@H]1c1ccc(F)c(F)c1OCCN1CC2CC(C1)O2` [Compound 633, (2R,3S,4S,5R)-3-(2-(2-(6-oxa-3-azabicyclo[3.1.1]heptan-3-yl)ethoxy)-3,4-difluorophenyl)-4,5-dimethyl-N-(3-methylisoxazol-4-yl)-5-(trifluoromethyl)tetrahydrofuran-2-carboxamide], the pIC50 is 7.00 to 8.00.

As to `COc1c([C@H]2[C@H](C(=O)Nc3ccnc(C(O)CN(C)C)c3)O[C@@](C)(C(F)(F)F)[C@H]2C)ccc(F)c1F` (stereo partly drawn) [Compound 378, (2R,3S,4S,5R)-3-(3,4-difluoro-2-methoxy-phenyl)-N-[2-[2-(dimethylamino)-1-hydroxy-ethyl]-4-pyridyl]-4,5-dimethyl-5-(trifluoromethyl)tetrahydrofuran-2-carboxamide], the pIC50 was above 8.00.

As for `COc1c([C@H]2[C@H](C(=O)Nc3ccc(-n4cncn4)nc3)O[C@@](C)(C(F)(F)F)[C@H]2C)ccc(F)c1F` [Compound 402, (2R,3S,4S,5R)-N-(6-(1H-1,2,4-triazol-1-yl)pyridin-3-yl)-3-(3,4-difluoro-2-methoxyphenyl)-4,5-dimethyl-5-(trifluoromethyl)-tetrahydrofuran-2-carboxamide], the pIC50 was 7.00 to 8.00.

In the case of `CCS(=O)(=O)c1cc(NC(=O)[C@H]2O[C@](C)(C(F)(F)F)[C@H](C)[C@@H]2c2ccc(F)c(F)c2OC(F)F)ccn1` (single isomer, unassigned) [Compound 89], the pIC50 is 6.00 to 7.00.
